How the values were obtained:
Type in all cases: binding
[1] = biological target: T1, DRD5 (Homo sapiens, UniProt P21918); test: NanoBRET screen HiBiT-DRD5 in HEK293; conditions: DRD5
T1 construct: purchased Promega (in-house HiBiT-GPCR construct library, NanoBRET)
Method: (§1) Each tracer candidate was screened across the entire library of HiBiT-GPCR constructs using NanoBRET as the detection modality. As depicted in Figure 4A, the specificity of interactions was evaluated through decrease in BRET due to competitive displacement of a bound tracer by excess parental compound. Each tracer was analyzed for binding to each HiBiT-GPCR fusion in the absence and in the presence of competing parental compound. Briefly, HEK293 cells were transfected with HiBiT-GPCR constructs diluted into promoterless DNA to reduce expression and maximize translocation to the cell surface. Each tracer candidate was then screened at concentrations of 1 μM and 0.1 μM across cells expressing these fusions. Cells were treated for 1.5 h with tracer either alone or in the presence of 20 μM competing parental compound (i.e., control). BRET was measured upon addition of purified LgBiT and subsequent complementation with HiBiT genetically fused to a GPCR. The specificity of interactions was assessed through a decrease in BRET signal due to competitive displacement of the bound tracer. To further gauge the robustness of these interactions, the fold response over the control (i.e., BRETtracer/BRETcontrol) was calculated. We chose a 1.5-fold response, which translates to ≥7-fold signal over noise as the minimal threshold required to score an interaction as positive. […]. Below we highlight the screening results obtained for our exemplary fluorescent tracers based on Clozapine, Amitriptyline and AZD1283.
(§2) HiBiT-GPCR DNA constructs were diluted in 10 mM Tris pH 8 to a final concentration of 0.01 μg/μL, arrayed in 96-well plates and stored at −20 °C. For transfection, HEK293 cells were suspended in Opti-MEM (without phenol red) supplemented with 2% fetal bovine serum (Seradigm) and 100 units/mL penicillin–streptomycin (Gibco) at a final concentration of 220,000 cells/mL and dispensed into white 96-well plates at 90 μL/well. Subsequent transfections and screens were carried using an Agilent Bravo Automated Liquid Handling Platform. First, the 96-well HiBiT DNA arrays were diluted 25-fold in Opti-MEM (without serum or phenol red) to a final concentration of 0.0004 μg/μL and 20 μL of the diluted DNAs were transferred into new 96-well plates. Next, promoterless carrier DNA (1 μg/μL) was diluted 25-fold (0.04 μg/μL) and then dispensed into the diluted arrays at 20 μL/well. Following brief mixing, Viafect transfection reagent (Promega) diluted 16-fold into Opti-MEM was dispensed into the plates at 40 μL/well. After mixing by pipetting, plates were incubated for 10 min on the pipetting station deck. The DNA-transfection reagent complexes were then added to plates containing cells. To facilitate the screen, 10 μL of DNA-transfection reagent complexes were added in duplicates to the top 4 and bottom 4 rows, resulting in two identical 48-well arrays per plate. Plates with transfected cells were incubated for 18–20 h at 37 °C/5% CO2. A screen of each tracer across the entire library using two different concentrations requires duplicate plates of transfected cells. Depending on the number of tracers being screened, transfections can be scaled up using the same ratios. The next day, for each tracer, four 20× screening solutions in tracer dilution buffer (Promega) were prepared: two duplicates at final concentration of 20 μM and two duplicates at a final concentration of 2 μM. A competing unmodified compound was added to one of each duplicate at a final concentration of 400 μM. The four resulting solutions were diluted 4-fold in Opti-MEM without serum or phenol red to generate 5× solutions (5 µM and 0.5 µM tracer +/− 100 μM competing compound). To screen the library, a BioTek MultiFlo FX liquid dispenser was used to dispense 22.5 µL of tracer solution to the top 4 rows and 22.5 µL tracer + competing compound solution to the 4 bottom rows. Plates were briefly mixed on an orbital shaker and incubated for 1.5 h at room temperature. […]

[2] = biological target: T2, LTB4R2 (Homo sapiens, UniProt Q9NPC1); test: NanoBRET screen HiBiT-LTB4R2 in HEK293; conditions: LTB4R2
T2 construct: purchased Promega (in-house HiBiT-GPCR construct library, NanoBRET)
T2 sequence (Q9NPC1 1-358): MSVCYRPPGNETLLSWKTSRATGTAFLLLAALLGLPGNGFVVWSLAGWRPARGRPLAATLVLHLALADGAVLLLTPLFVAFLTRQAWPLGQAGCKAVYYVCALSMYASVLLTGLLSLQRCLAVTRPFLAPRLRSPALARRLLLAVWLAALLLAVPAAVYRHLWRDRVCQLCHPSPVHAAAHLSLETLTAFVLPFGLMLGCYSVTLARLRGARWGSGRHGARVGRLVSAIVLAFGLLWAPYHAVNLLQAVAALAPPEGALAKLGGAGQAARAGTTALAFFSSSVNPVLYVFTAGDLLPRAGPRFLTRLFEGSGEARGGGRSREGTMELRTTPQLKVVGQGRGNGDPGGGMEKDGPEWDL
Method: as §1, §2

[3] = biological target: T3, BDKRB1 (Homo sapiens, UniProt P46663); test: NanoBRET screen HiBiT-BDKRB1 in HEK293; conditions: BDKRB1
T3 construct: purchased Promega (in-house HiBiT-GPCR construct library, NanoBRET)
T3 sequence (P46663 1-353): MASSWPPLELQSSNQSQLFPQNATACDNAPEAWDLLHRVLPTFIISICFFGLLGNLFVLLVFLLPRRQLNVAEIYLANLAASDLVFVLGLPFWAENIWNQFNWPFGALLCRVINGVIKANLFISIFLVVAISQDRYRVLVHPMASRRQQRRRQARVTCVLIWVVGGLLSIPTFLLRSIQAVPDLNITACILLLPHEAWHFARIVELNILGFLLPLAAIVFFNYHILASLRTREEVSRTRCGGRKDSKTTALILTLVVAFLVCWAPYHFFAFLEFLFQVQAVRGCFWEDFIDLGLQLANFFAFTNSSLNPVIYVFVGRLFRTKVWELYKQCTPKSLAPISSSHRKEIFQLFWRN
Method: as §1, §2

[4] = biological target: T4, GALR1 (Homo sapiens, UniProt P47211); test: NanoBRET screen HiBiT-GALR1 in HEK293; conditions: GALR1
T4 construct: purchased Promega (in-house HiBiT-GPCR construct library, NanoBRET)
T4 sequence (P47211 1-349): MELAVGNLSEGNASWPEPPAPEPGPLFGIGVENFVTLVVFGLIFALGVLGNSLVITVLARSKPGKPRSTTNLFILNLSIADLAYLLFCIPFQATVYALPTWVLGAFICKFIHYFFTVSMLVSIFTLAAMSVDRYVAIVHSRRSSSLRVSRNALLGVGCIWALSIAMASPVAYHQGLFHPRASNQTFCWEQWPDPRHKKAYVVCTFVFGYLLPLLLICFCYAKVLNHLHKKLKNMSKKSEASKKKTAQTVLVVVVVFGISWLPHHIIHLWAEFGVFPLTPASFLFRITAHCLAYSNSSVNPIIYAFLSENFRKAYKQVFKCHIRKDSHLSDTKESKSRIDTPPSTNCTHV
Method: as §1, §2

T1 sequence (P21918 whole entry): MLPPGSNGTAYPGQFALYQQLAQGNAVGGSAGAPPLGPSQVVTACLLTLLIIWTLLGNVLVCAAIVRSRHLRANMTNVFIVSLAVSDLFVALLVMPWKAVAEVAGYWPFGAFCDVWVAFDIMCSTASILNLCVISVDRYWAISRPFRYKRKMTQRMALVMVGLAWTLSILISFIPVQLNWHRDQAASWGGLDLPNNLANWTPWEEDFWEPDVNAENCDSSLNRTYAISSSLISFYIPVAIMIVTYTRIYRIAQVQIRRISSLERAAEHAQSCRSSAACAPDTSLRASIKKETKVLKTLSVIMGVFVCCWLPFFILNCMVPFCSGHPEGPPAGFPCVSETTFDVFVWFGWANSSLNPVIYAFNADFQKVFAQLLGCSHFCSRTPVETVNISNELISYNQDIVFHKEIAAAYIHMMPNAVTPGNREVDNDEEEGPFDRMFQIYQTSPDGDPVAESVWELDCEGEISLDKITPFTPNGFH

| Compound | NanoBRET Fold Response ([1]; tracer 0.1μM) | NanoBRET Fold Response ([1]; tracer 1μM) | NanoBRET Fold Response ([2]; tracer 0.1μM) | NanoBRET Fold Response ([2]; tracer 1μM) | NanoBRET Fold Response ([3]; tracer 0.1μM) | NanoBRET Fold Response ([3]; tracer 1μM) | NanoBRET Fold Response ([4]; tracer 0.1μM) | NanoBRET Fold Response ([4]; tracer 1μM) | NanoBRET Fold Response ([1]; 0.1μM) | NanoBRET Fold Response ([1]; 1μM) | NanoBRET Fold Response ([2]; 0.1μM) | NanoBRET Fold Response ([2]; 1μM) | NanoBRET Fold Response ([3]; 0.1μM) | NanoBRET Fold Response ([3]; 1μM) | NanoBRET Fold Response ([4]; 0.1μM) | NanoBRET Fold Response ([4]; 1μM) |
| --- | --- | --- | --- | --- | --- | --- | --- | --- | --- | --- | --- | --- | --- | --- | --- | --- |
| O=C(CCOCCOCCOCCOCCNC(=O)CCc1ccc2n1[B-](F)(F)[N+]1=C(c3ccc[nH]3)C=CC1=C2)NCCCN1CCN(C2=Nc3ccccc3Oc3ccc(Cl)cc32)CC1 [Loxapine-a-2-NB590] | 1.25 | 2.20 | 0.90 | 0.95 | 1.05 | 1.27 | 1.03 | 1.21 |  |  |  |  |  |  |  |  |
| COc1ccccc1N1CCN(CCCCN2C(=O)c3ccc(CNC(=O)CCOCCOCCOCCOCCNC(=O)CCc4ccc5n4[B-](F)(F)[N+]4=C(c6ccc[nH]6)C=CC4=C5)cc3C2=O)CC1 [NAN-190-2-NB590] | 1.02 | 1.21 | 0.95 | 1.05 | 1.05 | 1.06 | 1.02 |  |  |  |  |  |  |  |  |  |
| COc1ccccc1N1CCN(CCCCN2C(=O)c3ccc(CNC(=O)CCOCCNC(=O)c4ccc(CNC(=O)CCc5ccc6n5[B-](F)(F)[N+]5=C(c7ccc[nH]7)C=CC5=C6)cc4)cc3C2=O)CC1 [NAN-190-3-NB590] | 1.05 | 1.42 | 0.76 | 1.30 | 0.84 | 1.05 | 1.09 | 0.99 |  |  |  |  |  |  |  |  |
| O=C(CCc1ccc2n1[B-](F)(F)[N+]1=C(c3ccc[nH]3)C=CC1=C2)NCc1ccc(C(=O)NCCOCCC(=O)N[C@@H]2CC[C@@]3(O)[C@H]4Cc5ccc(O)c6c5[C@@]3(CCN4CC3CC3)[C@H]2O6)cc1 [Naltrexone-3-NB590] | 1.25 | 1.07 | 0.89 | 1.36 | 1.18 | 1.03 | 0.99 | 0.89 |  |  |  |  |  |  |  |  |
| Cc1cc2c(s1)Nc1ccccc1N=C2N1CCN(CCCNC(=O)CCOCCOCCOCCOCCNC(=O)CCc2ccc3n2[B-](F)(F)[N+]2=C(c4ccc[nH]4)C=CC2=C3)CC1 [Olanzapine-a-2-NB590] | 1.20 | 2.53 | 0.97 | 1.06 | 0.83 | 1.10 | 1.03 | 1.09 |  |  |  |  |  |  |  |  |
| O=C(CCc1ccc2n1[B-](F)(F)[N+]1=C(c3ccc[nH]3)C=CC1=C2)NCc1ccc(C(=O)NCCOCCOCCNCC(O)COc2cccc3ccccc23)cc1 (stereo not drawn) [Propranolol-3-NB590] |  |  |  |  |  |  |  |  | 1.03 | 1.00 | 1.01 | 0.96 | 0.95 | 0.97 | 1.02 | 0.96 |
| O=C(CCc1ccc2n1[B-](F)(F)[N+]1=C(c3ccc[nH]3)C=CC1=C2)NCCOCCOCCNC(=O)OCCOCCN1CCN(C2=Nc3ccccc3Sc3ccccc32)CC1 [Quetiapine-a-2-NB590] | 1.09 | 1.43 | 1.09 | 1.04 | 1.42 | 0.65 | 1.02 | 0.76 |  |  |  |  |  |  |  |  |
| Cc1nc2n(c(=O)c1CCN1CCC(c3noc4cc(F)ccc34)CC1)CCCC2OC(=O)NCCOCCOCCOCCOCCNC(=O)CCc1ccc2n1[B-](F)(F)[N+]1=C(c3ccc[nH]3)C=CC1=C2 (stereo not drawn) [Risperidone-2-NB590] | 1.92 | 2.44 | 0.97 | 0.94 | 1.28 | 0.77 | 1.00 | 0.99 |  |  |  |  |  |  |  |  |

Reference: publication PMC8151276, “An Integrated Approach toward NanoBRET Tracers for Analysis of GPCR Ligand Engagement” (Molecules, 2021)
